Measurements as given in patent US9410958B2, “Alkyne-activated fluorogenic azide compounds and methods of use thereof” (The Regents of the University of California, priority 2014, dated 2016).

Assays:
[1] = system: wild-type L. monocytogenes; assay: D-alanine competition experiment; conditions: 5 mM cyclooctyne amino acid, 0 or 20 mM D-alanine
Protocol: The bacteria were incubated with 5 mM cyclooctyne amino acid, in the presence of either 0 or 20 mM D-alanine, and labeled following the general procedure.
Bacteria were grown to an optical density (OD) of 0.4 in their respective media (7H9 for M. smegmatis, LB for C. glutamicum, BHI for L. monocytogenes) at 37° C. (M. smegmatis and L. monocytogenes) or 30° C. (C. glutamicum). Then, 5 mM D-amino acid was added (from a 1 M stock in H2O, 1 eq. NaOH was added to help solubilize compounds 12, 13, and 14) and the cells grown for one doubling time. The bacteria were then added to a 96-well V-bottom plate at 200 μL/well and pelleted by centrifugation at 3500 rpm for 3 min. The supernatant was removed and the cells resuspended in 200 μL PBS and pelleted again. This wash process was repeated twice more. The cells were then incubated with 100 μL of 20 μM azido-PEG3-carboxyrhodamine 110 (Click Chemistry Tools) in PBS (made by diluting a 1 mM stock in 9:1 PBS/DMSO) and placed in a 37° C. shaker for 1 h. Alternatively, for alkDala, labeling was performed by incubation with 100 μL of 20 μM azido-PEG3-carboxyrhodamine 110, 128 μM TBTA, 1 mM CuSO4, and 1.2 mM sodium ascorbate in PBS in a 37° C. shaker for 1 h. The cells were washed three times, then fixed with 4% paraformaldehyde for 10 min at rt. The cells were washed another three times, then studied by flow cytometry and microscopy.

[2] = in methanol; cited from earlier work
fixed HEK 293T cells = assay: No-wash labeling of glycoproteins on fixed cells; format: cell-based; conditions: 10 μM probe, 100 μM TBTA, 1 mM CuSO4, 2 mM sodium ascorbate
Protocol: (A) Labeling glycoproteins on live cell surfaces. […] (B) Labeling glycoproteins on fixed cells.
Fixed (3% paraformaldehyde) Ac4ManNAl-treated HEK 293T cells were also evaluated as substrates CalFluor labeling. In this case, copper-click reaction with 50 μM CuSO4 and 300 μM BTTAA gave poor labeling, potentially due to sequestration of the copper catalyst by denatured proteins. However, use of higher catalyst concentrations (100 μM TBTA, 1 mM CuSO4, 2 mM sodium ascorbate) gave robust labeling with 10 μM CalFluor dyes (FIG. 34B). […] Similar results were achieved when performing the same experiments on fixed CHO K1 cells.

[3] = system: sialic acids in developing zebrafish; assay: Visualizing sialic acids in developing zebrafish; format: in vivo; conditions: 24 or 36 hpf, imaged without washing
Protocol: The probes were tested for visualization of glycans in vivo. […] To test the utility of CalFluors in this system for such applications, zebrafish embryos at the single-cell stage were injected with SiaNAl. After either 24 or 36 hours post fertilization (hpf), the embryos were bathed in a solution containing a CalFluor probe along with copper catalyst.
Zebrafish were injected with 50 pmol SiaNAl at the one to four-cell stage and allowed to develop over time. (A) Real-time labeling of sialic acids. After 24 hpf, zebrafish were incubated in a solution containing 1 μM CalFluor 580 and copper catalyst. […] (B) Comparing no-wash labeling performance by azide probes. After 36 hpf, the embryos were transferred to a solution containing the fluorophore (1 μM for CalFluor 580 and AlexaFluor 594 alkyl azide, or 5 μM for 3-azido-7-hydroxycoumarin) and copper catalyst and imaged without washing after 20 minutes.

Escherichia coli = assay: No-wash peptidoglycan labeling of Gram-negative Escherichia coli; format: cell-based
Protocol: E. coli incubated with 5 mM endobcnDala or Dala for 2 h from a starting OD of 0.05 and imaged in the presence of 20 μM of azido Si-rhodamine 11 as described above. Only a fraction of the bacteria incubated with endobcnDala were fluorescently labeled under these conditions. (A), (C) Fluorescence and brightfield images of E. coli incubated with 5 mM endobcnDala. (B), (D) Fluorescence and brightfield images of E. coli incubated with 5 mM Dala. Scale bar=10 μm. […] Scale bar=1 μm.
Finally, the bacteria were imaged using the NIR fluorogenic azide probes. It was confirmed that azido Si-rhodamines 9, 10, and 11 would undergo an enhancement in fluorescence upon reaction with cyclooctynes. These probes were incubated with endo-bicyclononynol in vitro to generate triazole products (FIG. 24A). […] All three bacterial strains were incubated with endobcnDala 14 as before, but after washing away excess amino acid, the bacteria were incubated with 10 or 20 μM 11 for 1 hour and directly imaged without washing away excess probe (FIG. 7B). […] While the biosynthetic machinery can tolerate fluorophore-conjugated D-amino acids, allowing one-step PG imaging versus our two-step metabolic/chemical labeling approach, chemical reporter groups are much smaller than long-wavelength fluorophores and therefore minimize possible biological perturbations. […]

[4] = Photophysical properties and fluorescence quantum yields of Si-rhodamines in PBS pH 7.4; format: physicochemical
Protocol: The fluorescence quantum yields of the purified amino, azido, and triazolyl Si-rhodamines were measured in pH 7.4 phosphate buffered saline (PBS) using cresyl violet in methanol (Φfl=0.54) as a standard (Table 1). […] The best candidate of the four, 8-azidonaphthyl-substituted Si-rhodamine 1, afforded only a 5-fold increase in fluorescence quantum yield as compared with the 29-fold enhancement observed with the corresponding fluorescein.
Fluorescence quantum yields were measured by creating 2 mM stocks of dyes in MeOH. The dyes were then diluted to 20 μM in PBS, then further diluted in PBS to various final concentrations. The absorbance and emission spectra of five different concentrations of dye were measured while keeping maximum absorbance under 0.2. Solutions of probe were excited at 600 nm, and emission was integrated from 600 to 800 nm. Plotting integrated emission vs. absorbance at 600 nm yielded a line, whose slope corresponds to the fluorescence quantum yield. Absolute quantum yields were determined by comparison with the slope of the line measured for cresyl violet in MeOH (Φfl=0.54). The reported quantum yields are the average of three sets of measurements. Absorbance spectra were recorded on a Varian Cary 50 UV-Visible spectrophotometer. Fluorescence spectra were recorded on a Photon Technology International Quanta Master 4 L-format scanning spectrofluorometer equipped with an LPS-220B 75-W xenon lamp and power supply, A-1010B lamp housing with an integrated igniter, switchable 814 photon counting/analog photomultiplier detection unit, and MD5020 motor driver. Measurements were made in 1 cm×0.4 cm quartz cuvettes with a total sample volume of 1 mL.

mammalian cells = assay: Mammalian cell surface labeling of Ac4ManNAl-treated cells; format: cell-based; conditions: cells labeled with Ac4ManNAl
Protocol: Compound 9 was tested as a biological imaging reagent using mammalian cells that had been metabolically labeled with peracetylated N-pentynoylmannosamine (Ac4ManNAl), which is metabolized to N-pentynoyl sialic acid (SiaNAl) and presented on cell-surface glycoconjugates. […] It was hypothesized that replacing the methoxy groups with more water soluble alkoxy substituents would maintain the electronic balance between the pendant aryl and the Si-xanthene moieties while enhancing hydrophilicity. To this end, compound 10 was synthesized in six steps from 2,4-difluoronitrobenzene (FIG. 5, and Scheme 1).
Finally, 2.5 μL 1 mM azido fluorophore in 4:1 PBS/MeOH was added. […] Microscopy was performed using a Zeiss AxioVert 200M inverted microscope using a Plan-Neofluar 40×/0.75 objective. Exposure time was 1000 ms using the FITC, Cy3, or Cy5 filters. Images were acquired and processed using SlideBook 5.0, and are shown as a single z-plane.

HEK 293T cells = assay: No-wash live cell surface labeling and mitochondrial co-staining, HEK 293T
Protocol: Cells were grown in 8-well Lab-Tek Chambered Coverglass systems in media (HAM-F12 for CHO K1 cells, DMEM for HEK 293T cells) containing 10% fetal bovine serum, penicillin/streptomycin, and either 50 μM Ac4ManNAl or Ac4ManNAc for 3 d at 37° C., as described previously. The cells were then washed with 3×300 μL PBS, then incubated with 100 μL freshly prepared click solution. Click solution comprised of 50 μM CuSO4, 300 μM BTTAA, 2.5 mM sodium ascorbate, and 5 μM azido Si-rhodamine. This was prepared by first adding 0.5 μL 50 mM CuSO4 in H2O and 3 μL 50 mM BTTAA in H2O to 481.5 μL PBS. Next, 12.5 μL freshly prepared 100 mM sodium ascorbate in PBS was added. Finally, 2.5 μL 1 mM azido Si-rhodamine in 4:1 PBS/MeOH was added. After 15 min, the reactions were quenched with the addition of 1 μL of 100 mM bathocuproine disulfonate (BCS) in H2O (final concentration 1 mM). […] For real-time imaging, images were acquired as the labeling progressed without quenching the reaction.
HEK 293T cells were grown in a LabTek 8-well chambered glass slide in DMEM containing fetal bovine serum, penicillin/streptomycin for 3 d at 37° C. The cells were then incubated with 100 nM MitoTracker Green FM and 1 μg/mL Hoechst 33342 in fresh media for 30 min at 37° C., then media removed and the cells incubated with 100 μL PBS containing 5 μM 10. The cells were then directly imaged.
The CalFluors' performance in no-wash cell imaging experiments was evaluated. Using established methods, cell-surface glycoconjugates were metabolically labeled with peracetylated N-pentynoyl mannosamine (Ac4ManNAl), which introduces terminal alkyne groups into sialic acid residues (SiaNAl). HEK 293T cells treated in this fashion were then incubated, without fixation, with a cocktail containing 50 μM CuSO4, 300 μM BTTAA, 5 mM sodium ascorbate and 10 μM CalFluor dye.
Cells were grown with 50 μM Ac4ManNAl or Ac4ManNAc for 3 days, then subjected to click labeling with CalFluor probes. (A) Labeling glycoproteins on live cell surfaces. Cells were treated with 10 μM azide probe, 50 μM CuSO4, 300 μM BTTAA ligand, and 5 mM sodium ascorbate. The reaction was quenched with 1 mM BCS and the cells imaged without further wash steps. (B) Labeling glycoproteins on fixed cells. Cells were fixed with 3% paraformaldehyde, then treated with 10 μM CalFluor probe, 1 mM CuSO4, 100 μM TBTA ligand, and 2 mM sodium ascorbate. 0.1 mg/mL BSA was added to prevent the TBTA from precipitating over the course of the reaction.

CHO K1 cells = assay: No-wash cell surface labeling of SiaNAl residues, CHO K1; format: cell-based
Protocol: Si-rhodamine 10 was evaluated as a reagent for imaging SiaNAl residues on live cell surfaces. CHO K1 cells were incubated with 50 μM Ac4ManNAl for 3 days, washed, and then incubated with 5 μM 10, 50 μM CuSO4, 300 μM BTTAA, and 1 mM sodium ascorbate. […] Cell-surface glycan labeling was visualized as it occurred in real time (FIG. 14). Background labeling was minimal on control cells treated with N-acetylmannosamine (Ac4ManNAc) (FIG. 13).

[5] = system: M. smegmatis, C. glutamicum, L. monocytogenes; assay: No-wash peptidoglycan labeling with compound 11; format: cell-based; conditions: endobcnDala 14-treated, 10 or 20 μM probe, 1 hour
Protocol: Finally, the bacteria were imaged using the NIR fluorogenic azide probes. It was confirmed that azido Si-rhodamines 9, 10, and 11 would undergo an enhancement in fluorescence upon reaction with cyclooctynes. These probes were incubated with endo-bicyclononynol in vitro to generate triazole products (FIG. 24A). […] All three bacterial strains were incubated with endobcnDala 14 as before, but after washing away excess amino acid, the bacteria were incubated with 10 or 20 μM 11 for 1 hour and directly imaged without washing away excess probe (FIG. 7B). […] While the biosynthetic machinery can tolerate fluorophore-conjugated D-amino acids, allowing one-step PG imaging versus our two-step metabolic/chemical labeling approach, chemical reporter groups are much smaller than long-wavelength fluorophores and therefore minimize possible biological perturbations. […] It is hypothesized that the presence of an outer membrane (though apparently not a mycobacterial “mycomembrane”, FIG. 8A-D) limits access of compound 11 to PG. By contrast, smaller dyes were able to access both terminal alkynes and cyclooctynes in metabolically labeled E. coli PG (FIG. 27).
The bacteria were incubated with either endobcnDala or Dala and washed as described above. […]

For `NC(CNC(=O)OC1C#CCCCCC1)C(=O)O` (stereo not shown) [Compound 12], which “effect of excess D-alanine on labeling” value [1] is on record?
The value was “excess D-alanine decreases the fluorescence intensity”.

Which “Φfl of the standard” value [2] does the source give for cresyl violet here?
Its value is 0.54.

Which “labeling of fixed cells” value (fixed HEK 293T cells) does the source give for `[N-]=[N+]=Nc1cc2ccc(O)cc2oc1=O` here?
The value was “performed comparably to the CalFluors”.

And the no-wash alkyne-dependent labeling [3]?
The no-wash alkyne-dependent labeling was “obscured alkyne-dependent labeling”.

For `NC(CNC(=O)OC[C@@H]1[C@@H]2CCC#CCC[C@@H]21)C(=O)O` (stereo partly shown) [Compound 14], which “effect of excess D-alanine on labeling” value [1] is on record?
Its value is “excess D-alanine decreases the fluorescence intensity”.

What about the “metabolic incorporation of D-amino acid” value (Escherichia coli) of the same molecule?
Its value is “similarly to the Gram-positive bacteria”.

Which λabs [4] does the source give for `COc1cc(OC)c(C2=C3C=CC(=[N+](C)C)C=C3[Si](C)(C)c3cc(N(C)C)ccc32)cc1N=[N+]=[N-]` [Compound 9-N3, 3-Azido-4,6-dimethoxy-Si-rhodamine] here?
Its λabs is 654 nm.

What about the λem [4] of the same molecule?
Its λem is 666 nm.

And the Φfl ([4]; cresyl violet in methanol as standard)?
Its Φfl is 0.0042.

And the “Change in Φfl” value ([4]; increase (↑), triazole relative to the azide)?
The value was 48 fold.

What about the background labeling (mammalian cells) of the same molecule?
Its background labeling is “significant alkyne-independent background labeling even after repeated washing steps”.

For `CN(C)c1ccc2c(c1)[Si](C)(C)C1=CC(=[N+](C)C)C=CC1=C2c1cc(N=[N+]=[N-])c(OCCOCCOS(=O)(=O)O)cc1OCCOCCOS(=O)(=O)[O-]` [Compound 11], which cell-surface labeling (HEK 293T cells; Ac4ManNAl-treated HEK 293T, no wash) is on record?
The cell-surface labeling was “robust cell-surface labeling”.

What about the “background, intracellular or mitochondrial labeling” value (HEK 293T cells; HEK 293T) of the same molecule?
The value was “no unwanted background or mitochondrial labeling”.

And the cell permeability (HEK 293T cells; HEK 293T)?
Its cell permeability is “not cell permeable”.

And the cell-surface labeling (CHO K1 cells; Ac4ManNAl-treated CHO K1, no wash, 15 min)?
The cell-surface labeling was “robust cell-surface labeling”.

And the background labeling (CHO K1 cells; CHO K1, control or unwanted labeling)?
The background labeling was “no unwanted background or mitochondrial labeling”.

And the “no-wash fluorescence signal on bacteria” value [5]?
Its value is “Clear fluorescence signal over background”.

And the “labeling of peptidoglycan with dye” value (Escherichia coli; 5 mM endobcnDala, 20 μM probe)?
The value was “not efficiently labeled”.

With `NC(CNC(=O)OC[C@H]1[C@@H]2CCC#CCC[C@@H]21)C(=O)O` (stereo partly shown) [Compound 13] as the molecule, how does the “effect of excess D-alanine on labeling” value [1] read?
Its value is “excess D-alanine decreases the fluorescence intensity”.
